Reference: US20040115237A1, “Biocompatible composite” (priority 2001, published 2004)

How the values were obtained:
HA-VSCMs = assay: HA-VSMC culture on silicone based film membranes, viability staining viewed under CLSM; type: cell-based, Human; settings: GTN coated FISi membrane vs FISi only film membranes
Method: HA-VSCMs were cultured on silicone based film membranes supplied by Vascutek. 2 membrane types were tested: uncoated FISi membrane and FISi membrane coated with GTN. Cells were seeded at 5×10^3 seeding density. Cells were cultured for a week and the medium was changed every two days. […] This problem was overcome by sticking the coverslips to the plate with double sided tape before the wells were seeded. Furthermore the cells were washed off during staining or the cells were saved for too long. Some cells were saved by introducing a gentle washing step. On the seventh day, the coverslips were stained and viewed under the CLSM for viability studies.
The following were used as viability stains; CFDA (carboxyfluorescein diacetate) is a vital stain that penetrates cell membranes. Viable cells contain esterase enzymes that remove the diacetate from the molecule thus forming CF which is fluorescent. Once CF if formed, it accumulates in the membrane and viable cells with fluoresce bright green.
Ethidium Bromide: is a vital dye that is only able to pass through the compromised membrane of dead cells and stain them red.
Acridine Orange: is a dye which intercalates with DNA and RNA by intercalation or electrostatic attraction.

[1] = system: Human Aortic Vascular SMC cell line; assay: SMC growth inhibition after drug exposure, MTT assay and Neutral Red assay; type: cell-based; settings: high doses; analysed after 72 hours
Method: The Human Aortic Vascular SMC cell line was investigated. 96 well plates were seeded and were incubated for at least one day. Medium from the plate was removed and replaced with medium containing varying concentrations of drugs, the drugs being dex, aspirin, GTN or a combination of these drugs. The effects of the drugs were analysed after 72 hours with two viability assays: MTT assay and Neutral Red assay. Absorbance values were read from a microplate reader. MTT is a yellow tetrazolium salt taken up into cells. In viable cells, the salt was reduced in cytosol or mitochondria to form blue formazan salt. The formazan product was very insoluble and was disolved in dimethylsulphoxide before its absorbance was calculated. In non-viable cells, there was no reaction and the cells remained yellow. The Neutral Red assay involved adding neutral red solution, a red dye to cells. In viable cells, the dye stained lysosomes. The cells were incubated with neutral red solution for three hours (to enable dye to penetrate cells), a neutral red destain solution was then added to remove the dye. The intensity of the red colour equated to the number of viable cells.

| Compound | cell growth compared to FISi only film membranes (HA-VSCMs) | role in the treatment of vascular proliferative disorder (SMC growth inhibition) [1] |
| --- | --- | --- |
| O=[N+]([O-])OCC(CO[N+](=O)[O-])O[N+](=O)[O-] [GTN, Glyceryl Trinitrate] | does not significantly decrease cell growth |  |
| CC(=O)Oc1ccccc1C(=O)O [aspirin, acetylsalicylic acid] |  | appear to have a beneficial role |
